The values below come from patent US20190233906A1, “MUTANT STRAINS OF STAPHYLOCOCCUS AUREUS WITH MULTIPLE INACTIVATED TCS SYSTEMS” (priority 2015, published 2019).

Data set [1] deals with ArlR response regulator of the arlRS two-component system of S. aureus MW2.
In data set [2] the test system is ArlR D52A (non-phosphorylatable ArlR allele).
Another data set concerns S. aureus 8325. In kind it is cell-based, Staphylococcus aureus. The note with it: strain 8325. Here is the method:
(§1) Antibiotic sensitivity tests were performed at the University Clinic of Navarra. Antibiotics routinely used in clinic for treatment of S. aureus infections were tested by VITEK 2 system. • Growth Kinetics Analysis

In a further data set the test system is S. aureus MW2. In kind it is cell-based, Staphylococcus aureus. The following applies: strain MW2. Here is the method:
as §1

Another data set deals with S. aureus MW2 ΔXV. The data set is described as follows: Antimicrobial susceptibility test (VITEK 2 system). Also: key: R: resistant; S: susceptible. The following applies: strain MW2 ΔXV. Format: cell-based, Staphylococcus aureus. The method, then: as §1
A further data set deals with S. aureus 8325 ΔXV. The data set is described as follows: Antimicrobial susceptibility test (VITEK 2 system). Also: key: R: resistant; S: susceptible. Format: cell-based, Staphylococcus aureus. The following applies: strain 8325 ΔXV. The method, then: as §1
A further data set concerns arlR-dependent protein A. The experiment in a line: Protein A expression by Western blotting on stimulation of GraS. In kind it is cell-based, Staphylococcus aureus. The following applies: 50 μg of colistin. The method, then: Overnight cultures of the strains were diluted in TSB-gluc to an OD650nm=0.1 and 50 μl of the diluted cultures were mixed with 1950 μl of chemically defined medium HHWm (Hussain-Hastings-White modified medium) (Toledo-Arana et al., 2005) to inoculate sterile 24-well polystyrene microtitre plates (Costar). Plates were incubated at 37° C. for 24 hours, trying to mimic biofilm forming conditions. […] of bacterial cultures were centrifuged and pellets were resuspended in 60 μl PBS. Then, 2 μl of Lysostaphin 1 mg/ml (Sigma) and 3 μl of DNase I 1 mg/ml (Sigma) were added. After 2 h of incubation at 37° C. cell lysates were centrifuged and supernatants were collected. Protein concentration was determined with the Bio-Rad protein assay (Bio-Rad). Samples were adjusted to 3-5 μg of total protein and one volume of Laemmli buffer was added. Total protein extracts were denatured by boiling at 100° C. for 5 min. Proteins were separated on 10% SDS-polyacrylamide gels and stained with 0.25% Coomassie brilliant blue R250 (Sigma) as loading controls. For Western blotting, proteins were transferred onto Hybond-ECL nitrocellulose membranes (Amersham Biosciences) by semi-dry electroblotting. […] Protein A was detected with the SuperSignal West Pico Chemiluminescent Substrate (Thermo Scientific). • Construction of the Bap-Snap-ClfA Quimeric Protein and Expression in S. aureus ΔXVI
For Antimicrobial susceptibility (R/S) in this document: key: R: resistant; S: susceptible.

On to “ArlS H242A (ArlS allele that keeps phosphatase activity but cannot phosphorylate ArlR)”, for which the “Protein A expression by Western blotting in arlRS mutant” value in data set [1] is recorded as “The resulting strain showed a level of expression of protein A similar to that of the strain complemented with ArlR alone”.

For the substance “ArlS histidine kinase of the arlRS two-component system of S. aureus MW2”, in data set [1], the “Protein A expression by Western blotting” value is given as “They first confirmed that phosphorylation of ArlR by ArlS was necessary to induce protein A expression” and the “Protein A expression by Western blotting in ΔXV strain complemented with arlR plus one HK” value is listed as “In addition to ArlS itself, GraS is able to restore protein A expression in ΔXV strain”.

As to “GraS histidine kinase of the graXRS two-component system of S. aureus MW2”, in data set [2], the “Protein A expression by Western blotting in ΔXV strain” value was “substitution of ArlR wild type by the non-phosphorylatable ArlRD52A allele suppresses the cross-talk” and the “Protein A expression by Western blotting with 50 µg/ml colistin” value is reported as “activation of protein A expression was absent when the ArlR phosphate accepting aspartate was mutated”. The “Protein A expression by Western blotting in ΔXV strain complemented with arlR plus one HK” value in data set [1] is “In addition to ArlS itself, GraS is able to restore protein A expression in ΔXV strain”.

On to Quinuspristin/Dalfopristin, for which the “Antimicrobial susceptibility (R/S)” value in the data set with S. aureus 8325, in the data set with S. aureus MW2, with S. aureus MW2 ΔXV and in the data set on S. aureus 8325 ΔXV was “S” in each case.

Regarding Teicoplanin, the “Antimicrobial susceptibility (R/S)” value with S. aureus 8325, with S. aureus MW2, in the data set on S. aureus MW2 ΔXV and in the data set with S. aureus 8325 ΔXV was “S” in each case.

In the case of Trimethoprim/Sulfamethoxazole, the “Antimicrobial susceptibility (R/S)” value in the data set with S. aureus 8325, with S. aureus MW2, in the data set on S. aureus MW2 ΔXV and in the data set with S. aureus 8325 ΔXV was “S” in each case.

colistin: the “Expression of protein A” value in the data set on arlR-dependent protein A (arlRS graSR double mutant) is “but not in arlRS graSR double mutant”; with arlR-dependent protein A (wild type and single arlRS mutant) it was “activation of the expression of protein A was observed”.

Take “histidine kinase of the srrAB two-component system of S. aureus MW2 (SrrB by Table 1; printed 'SrrA' in the sentence)”: in data set [1], the “Protein A expression in ΔXV strain complemented with arlR plus one HK” value is “mainly GraS and to a lower level SrrA were able to activate ArlR”.
